Values quoted from earlier work, collected in patent US20130122099A1, “POLYETHYLENE GLYCOL-COATED SODIUM CARBONATE AS A PHARMACEUTICAL EXCIPIENT AND COMPOSITIONS PRODUCED FROM THE SAME” (priority 2008, published 2013).

conditions: not given

Row | pKa | Structure (SMILES)
1 | 7.7 | Cc1ccc2c(c1)c1c3n2CCNC3CCC1 (stereo not shown) [Pirlindole]
2 | 9.4 | CN[C@H]1CC[C@@H](c2ccc(Cl)c(Cl)c2)c2ccccc21 [Sertraline]
3 | 8.0 | Cc1ccnc(NS(=O)(=O)c2ccc(N)cc2)n1 [Sulfamerazine]
4 | 7.4 | Cc1cc(C)nc(NS(=O)(=O)c2ccc(N)cc2)n1 [Sulfamethazine]
5 | 7.2 | CCN(CC)C(=O)N[C@H]1C[C@@H]2c3cccc4[nH]cc(c34)C[C@H]2N(C)C1 [Terguride]
6 | 9.2 | CC(C)(C)NC[C@H](O)COc1nsnc1N1CCOCC1 [Timolol]
7 | 9.0 | Clc1ccc2nsnc2c1NC1=NCCN1 [Tizanidine]
8 | 7.4 | CC1(C)S[C@@H]2[C@H](NC(=O)[C@H](N)c3ccc(O)cc3)C(=O)N2[C@H]1C(=O)O [amoxicillin]
9 | 7.2 | c1ccc(CN(CC2=NCCN2)c2ccccc2)cc1 [antazoline]
10 | 9.65 | CN1CCN(C(c2ccccc2)c2ccc(Cl)cc2)CC1 (stereo not shown) [chlorcyclizine]
11 | 7.9 | CN(C)CCOC(=O)C(c1ccccc1)C1(O)CCCC1 (stereo not shown) [cyclopentolate]
12 | 7.5 | O=C1CN(/N=C/c2ccc(-c3ccc([N+](=O)[O-])cc3)o2)C(O)=N1 [dantrolene]
13 | 8.2 | COc1cccc2c1C(=O)c1c(O)c3c(c(O)c1C2=O)C[C@@](O)(C(C)=O)C[C@@H]3O[C@H]1C[C@H](N)[C@H](O)[C@H](C)O1 [daunomycin]
14 | 9.3 | CCC1(C)CC(=O)NC1=O (stereo not shown) [ethosuximide]
15 | 7.32 | O=C1NCN(c2ccccc2)C12CCN(CCCC(c1ccc(F)cc1)c1ccc(F)cc1)CC2 [fluspirilene]
16 | 8.9 | NS(=O)(=O)c1cc2c(cc1C(F)(F)F)NCNS2(=O)=O [hydroflumethiazide]
17 | 7.1 | OCCOCCN1CCN(C(c2ccccc2)c2ccc(Cl)cc2)CC1 (stereo not shown) [hydroxyzine]
18 | 7.5 | CCC[C@@H]1C[C@@H](C(=O)N[C@@H]([C@H]2O[C@H](SC)[C@H](O)[C@@H](O)[C@H]2O)[C@@H](C)O)N(C)C1 [lincomycin]
19 | 8.33 | CCC1(c2ccccc2)NC(=O)N(C)C1=O (stereo not shown) [mephenytoin]
20 | 8.9 | COc1ccc(CN(CCN(C)C)c2ccccn2)cc1 [mepyramine]
21 | 8.75 | CCn1cc(C(=O)O)c(=O)c2cc(F)c(N3CCNCC3)cc21 [norfloxacin]
22 | 8.0 | OC1(c2ccc(Cl)c(C(F)(F)F)c2)CCN(CCCC(c2ccc(F)cc2)c2ccc(F)cc2)CC1 [penfluridol]
23 | 9.2 | CN1C(=O)CC(c2ccccc2)C1=O (stereo not shown) [phensuximide]

Second part, the molecule before the results:

Row | Structure (SMILES) | pKa
24 | O=C1CC2(CCCC2)CC(=O)N1CCCCN1CCN(c2ncccn2)CC1 [Buspirone] | 7.2
25 | COc1cc(N)c(Cl)cc1C(=O)NC1CCN(CCCOc2ccc(F)cc2)CC1OC (stereo not shown) [Cisapride] | 7.83
26 | CN1CCN(C(c2ccccc2)c2ccccc2)CC1 [Cyclizine] | 7.7
27 | CCCCOc1cc(C(=O)NCCN(CC)CC)c2ccccc2n1 [Dibucaine] | 8.5
28 | CN(C)CCC=C1c2ccccc2COc2ccccc21 [Doxepin] | 8.2
29 | CNCCC(Oc1ccc(C(F)(F)F)cc1)c1ccccc1 (stereo not shown) [Fluoxetine] | 8.7
30 | CN1C2CCCC1CC(NC(=O)c1nn(C)c3ccccc13)C2 (stereo not shown) [Granisetron] | 9.4
31 | O=c1[nH]c(=O)n([C@H]2C[C@H](O)[C@@H](CO)O2)cc1I [Idoxuridine] | 8.3
32 | CN1CCC(=C2c3ccccc3CC(=O)c3sccc32)CC1 [Ketotifen] | 8.75
33 | CC(CCc1ccccc1)NCC(O)c1ccc(O)c(C(N)=O)c1 (stereo not shown) [Labetalol] | 8.7
34 | CN1CCCCC1CCN1c2ccccc2Sc2ccc([S+](C)[O-])cc21 (stereo not shown) [Mesoridazine] | 8.2
35 | CC(=O)/N=c1/sc(S(N)(=O)=O)nn1C [Methazolamide] | 7.3
36 | CN1CCN2c3ccccc3Cc3ccccc3C2C1 (stereo not shown) [Mianserine] | 8.3
37 | CN1CCN2c3ncccc3Cc3ccccc3C2C1 (stereo not shown) [Mirtazapine] | 7.7
38 | C=CCN1CC[C@]23c4c5ccc(O)c4O[C@H]2C(=O)CC[C@@]3(O)[C@H]1C5 [Naloxone] | 7.82
39 | OC(CNCC(O)C1CCc2cc(F)ccc2O1)C1CCc2cc(F)ccc2O1 (stereo not shown) [Nebivolol] | 8.6
40 | COc1ccc2c(c1OC)C(=O)O[C@@H]2[C@H]1c2c(cc3c(c2OC)OCO3)CCN1C [Noscapine] | 7.8
41 | Cc1nccn1CC1CCc2c(c3ccccc3n2C)C1=O (stereo not shown) [Ondansetron] | 7.7
42 | CCN(CC)CCCC(C)Nc1cc(OC)cc2cccnc12 (stereo not shown) [Pamaquine] | 8.7
43 | N#Cc1ccc2c(c1)N(CCCN1CCC(O)CC1)c1ccccc1S2 [Periciazine] | 8.3
44 | OCCN1CCN(CCCN2c3ccccc3Sc3ccc(Cl)cc32)CC1 [Perphenazine] | 7.94
45 | CC[C@@H]1C(=O)OC[C@@H]1Cc1cncn1C [Pilocarpine] | 6.6

same assay, conditions: listed as daunorubicin

Row | pKa | Structure (SMILES)
46 | 8.25 | COc1cccc2c1C(=O)c1c(O)c3c(c(O)c1C2=O)C[C@@](O)(C(C)=O)C[C@@H]3O[C@H]1C[C@H](N)[C@H](O)[C@H](C)O1 [daunomycin]
